One data set relates to Ribo-S6 phosphorylation. As to the kind of experiment: Inhibition of ribosomal protein S6 phosphorylation in stimulated primary human T cells (flow cytometry). The format is cell-based. How it is done:
The dose effect of exemplary mTOR kinase inhibitors in primary human T cells was assessed by monitoring inhibition of ribosomal protein S6.
CD4+ and CD8+ T cells were isolated by immunoaffinity-based enrichment from leukapheresis samples from human donor subjects. Isolated CD4+ and CD8+ T cells were mixed 1:1 and stimulated with anti-CD3/anti-CD28 magnetic beads in the presence of increasing concentrations of an mTOR kinase inhibitor, PI-103, Compound 155, Compound 63, or Compound 246. The T cell cultures were incubated overnight (approximately 16 hr) at 37° C. Following incubation in the presence of PI-103, Compound 155, Compound 63, or Compound 246, T cells were assessed for intracellular S6 phosphorylation and co-stained for surface expression of CD4 or CD8, by flow cytometry.

The test system of data set [1] is engineered CD8+ and CD4+ T cells. As to the kind of experiment: T cell expansion of anti-CD19 CAR-transduced CD4+ and CD8+ T cells incubated with mTOR kinase inhibitor. The format is cell-based. The protocol: Separate compositions of CD4+ and CD8+ cells were isolated from human leukapheresis samples by immunoaffinity-based enrichment and cryofrozen. The CD4+ and CD8+ cells of the compositions were subsequently thawed and activated by separately culturing the cells under stimulating conditions in the presence of anti-CD3/anti-CD28 magnetic beads and recombinant IL-2, IL-7 and/or IL-15 for approximately 20 hours. Cells were then transduced with a viral vector encoding an anti-CD19 chimeric antigen receptor (CAR). After transduction, the CD4+ and CD8+ cells were separately incubated in the presence of an mTOR kinase inhibitor, either Compound 155, Compound 63, or Compound 246, at various concentrations. For controls, cells were incubated with media only, DMSO vehicle, or with 200 nM PI-103. Incubation was carried out at 37° C. for approximately 8 days post-thaw with one media change, at which point the compounds were re-added to the culture media at the same concentration.
The percent of CD8+ and CD4+ T cells at the end of the process as compared to the amount of cells seeded for culture following the transduction is shown in FIG. 2. The cutoff for selecting a tolerated dose was set at 70% of the mean values of the media and DMSO controls.

Where [2] appears, read: Homo sapiens, T-cell, CD8+ T cells, read-out: IC50 for inhibition of Ribo-S6 phosphorylation, CD8.
The mark [3] stands for this setting: Homo sapiens, CD4+ T cells, read-out: IC50 for inhibition of Ribo-S6 phosphorylation, CD4.
[4] abbreviates: T-cell, primary human CD4+/CD8+ T cells mixed 1:1, anti-CD3/anti-CD28 beads, approximately 16 hr, read-out: IC50 for the inhibition of S6 phosphorylation in the T cells.

This note sets out measurements from patent publication US20210254000A1, “PROCESS FOR PRODUCING A T CELL COMPOSITION” (Juno Therapeutics, Inc., priority 2017, published 2021).

pIC50: −log10 of the molar value. Like-named read-outs stand apart in the source and are kept apart here.

Take `CO[C@H]1CC[C@H](N2C(=O)CNc3ncc(-c4ccc(C(C)(C)O)nc4)nc32)CC1` [Compound 246, 7-(6-(2-hydroxypropan-2-yl)pyridin-3-yl)-1-((1r,4r)-4-methoxycyclohexyl)-3,4-dihydropyrazino[2,3-b]pyrazin-2(1H)-one]: the figures for the pIC50 in the data set with Ribo-S6 phosphorylation (setting [2]), in the data set on Ribo-S6 phosphorylation (setting [3]) and with Ribo-S6 phosphorylation (setting [4]) were 6.30, 6.32 and ~6.30, respectively. Moreover, the “highest tolerated dose resulting in similar CD8 and CD4 T cell expansion as vehicle control” value in data set [1] (cutoff 70% of mean of media and DMSO controls, approximately 8 days post-thaw) was determined as 100 nM.

As to `O=c1[nH]c2ncc(-c3ccc(-c4nc[nH]n4)cc3)nc2n1CCC1CCOCC1` [Compound 155, 6-(4-(2H-1,2,4-Triazol-3-yl)phenyl)-1-(2-(tetrahydro-2H-pyran-4-yl)ethyl)-1H-imidazo [4,5-b]pyrazine-2(3H)-one], the negative-log IC50 (pIC50) is 6.90 with Ribo-S6 phosphorylation (setting [2]), 6.92 in the data set on Ribo-S6 phosphorylation (setting [3]) and ~7.00 in the data set on Ribo-S6 phosphorylation (setting [4]). Moreover, the “highest tolerated dose resulting in similar CD8 and CD4 T cell expansion as vehicle control” value in data set [1] (human) stood at 100 nM.
